Assay results from patent US9464326B2, “Total and phosphorylated IL-1 receptor-associated kinase-1 and IL-1 receptor-associated kinase-4 as a biomarker for cancer progression and chemotherapy resistance” (University of Maryland, Baltimore, priority 2012, dated 2016).

Tested on: CCRF-CEM cells
Assay: Cell number and apoptosis assays
Type: cell-based, human
Conditions: IRAK-1,-4 inhibitor 0-20 μM plus titrated drug, apoptosis by 7AAD at 48 hours, FIG. 23
Procedure: TLR ligands were diluted 2-fold. Cell lines (25-40×10^3/well) were cultured for 54 hours, whereas fresh patient-derived T-ALL cells (200×10^3/well) were cultured for 30 hours prior to adding [^3H]-thymidine for 18 hours. After this time point, cells were harvested with a Packard Filter-Mate-96 cell harvester (Perkin Elmer, Waltham, Mass., USA) and counted on Packard Top Count-NXT (Perkin Elmer, Waltham, Mass., USA). Results were expressed as average counts per minute (cpm). In some experiments CCRF-CEM cells were pre-treated with TLR1-TLR2 ligand (Pam3CysK4; 2.5 ug/ml) for 48 hrs, washed, and then cultured in the presence of varying concentrations of FBS. Forty-eight hours later, proliferation (±SD) was determined by ^3H-thymidine incorporation. Alternatively, apoptosis was measured by flow cytometry after staining cells with Annexin-V (BD Pharmingen, San Diego, Calif., USA) and propidium iodide (Sigma). Cell number was counted under microscopy by staining cells with trypan blue.
CCRF-CEM cells were treated with IRAK-1,-4 inhibitor for 24, 48, 72, and 96 hours.
The T-ALL cell line CCRF-CEM was cultured in the presence of 0, 1.2, 5, 10, and 20 μM IRAK-1,-4 inhibitor. (FIG. 23). To each concentration of IRAK-1,-4 inhibitor titrating doses of ABT-737 (1000→15 nM) vincristine, VS (10→0.1 nM), and paclitaxol, PAC (100→1.5 nM). […] Apoptosis was measure 48 hours later by staining cells with 7AAD and analyzed by flow cytometry.

oligomicin
synergy with IRAK-1,-4 inhibitor: No synergist effect
